Source: article PMC10141580, “Cyclic Dichalcogenides Extend the Reach of Bioreductive Prodrugs to Harness Thiol/Disulfide Oxidoreductases: Applications to seco-Duocarmycins Targeting the Thioredoxin System” (ACS Central Science, 2023)
Where two headings read alike, the source gives them in different places.

Test system: NCI-60 standardized human tumor cell line panel
Experiment: cells
Type: cell-based
[1] = cell line A549/ATCC (LC:A549/ATCC), TMI sheet
[2] = cell line BT-549 (BR:BT-549), TMI sheet
[3] = cell line CCRF-CEM (LE:CCRF-CEM), TMI sheet
[4] = cell line COLO 205 (CO:COLO 205), TMI sheet
[5] = cell line EKVX (LC:EKVX), TMI sheet
[6] = cell line HCC-2998 (CO:HCC-2998), TMI sheet
[7] = cell line HCT-15 (CO:HCT-15), TMI sheet
[8] = cell line HCT-116 (CO:HCT-116), TMI sheet
[9] = cell line HL-60(TB) (LE:HL-60(TB)), TMI sheet
[10] = cell line HOP-62 (LC:HOP-62), TMI sheet
[11] = cell line HOP-92 (LC:HOP-92), TMI sheet
[12] = cell line HT29 (CO:HT29), TMI sheet
[13] = cell line K-562 (LE:K-562), TMI sheet
[14] = cell line KM12 (CO:KM12), TMI sheet
[15] = cell line LOX IMVI (ME:LOX IMVI), TMI sheet
[16] = cell line M14 (ME:M14), TMI sheet
[17] = cell line MALME-3M (ME:MALME-3M), TMI sheet
[18] = cell line MCF7 (BR:MCF7), TMI sheet
[19] = cell line MDA-MB-435 (ME:MDA-MB-435), TMI sheet
[20] = cell line MOLT-4 (LE:MOLT-4), TMI sheet
[21] = cell line NCI-H23 (LC:NCI-H23), TMI sheet
[22] = cell line NCI-H226 (LC:NCI-H226), TMI sheet
[23] = cell line RPMI-8226 (LE:RPMI-8226), TMI sheet
[24] = cell line SF-539 (CNS:SF-539), TMI sheet
[25] = cell line SK-MEL-5 (ME:SK-MEL-5), TMI sheet
[26] = cell line SK-MEL-28 (ME:SK-MEL-28), TMI sheet
[27] = cell line SNB-19 (CNS:SNB-19), TMI sheet
[28] = cell line SR (LE:SR), TMI sheet
[29] = cell line SW-620 (CO:SW-620), TMI sheet
[30] = cell line T-47D (BR:T-47D), TMI sheet
[31] = cell line U251 (CNS:U251), TMI sheet
[32] = cell line UACC-62 (ME:UACC-62), TMI sheet
[33] = cell line UACC-257 (ME:UACC-257), TMI sheet

SMILES: COc1cc2cc(C(=O)N3CC(CCl)c4c3cc(OC(=O)N3CCN(C)C5CSSCC53)c3ccccc43)[nH]c2c(OC)c1OC (mixture of isomers) [Me-SS66C-CBI-TMI]
- GI50 (U251, read-out: GI50): 140 nM
- GI50 (UACC-62, read-out: GI50): 150 nM
- GI50 (UACC-257, read-out: GI50): 500 nM
- NCI-60 screening: Log(GI50) [1]: -6.74
- NCI-60 screening: Log(RedIndex) [1]: 1.04
- NCI-60 screening: Log(GI50) [2]: -6.78
- NCI-60 screening: Log(RedIndex) [2]: 0.98
- GI50 (cell line BT-549 (BR:BT-549), TMI sheet, read-out: NCI-60 screening: Raw GI50): 170 nM
- NCI-60 screening: Log(GI50) [3]: -6.98
- NCI-60 screening: Log(RedIndex) [3]: 0.98
- NCI-60 screening: Log(GI50) [4]: -6.48
- NCI-60 screening: Log(RedIndex) [4]: 0.62
- NCI-60 screening: Log(GI50) [5]: -6.64
- NCI-60 screening: Log(RedIndex) [5]: 0.93
- GI50 (cell line EKVX (LC:EKVX), TMI sheet, read-out: NCI-60 screening: Raw GI50): 230 nM
- NCI-60 screening: Log(GI50) [6]: -6.84
- NCI-60 screening: Log(RedIndex) [6]: 1.02
- GI50 (cell line HCC-2998 (CO:HCC-2998), TMI sheet, read-out: NCI-60 screening: Raw GI50): 140 nM
- NCI-60 screening: Log(GI50) [7]: -6.61
- NCI-60 screening: Log(RedIndex) [7]: 0.85
- GI50 (cell line HCT-15 (CO:HCT-15), TMI sheet, read-out: NCI-60 screening: Raw GI50): 250 nM
- NCI-60 screening: Log(GI50) [8]: -6.73
- NCI-60 screening: Log(RedIndex) [8]: 0.9
- NCI-60 screening: Log(GI50) [9]: -7.28
- NCI-60 screening: Log(RedIndex) [9]: 1.16
- NCI-60 screening: Log(GI50) [10]: -6.69
- NCI-60 screening: Log(RedIndex) [10]: 0.46
- GI50 (cell line HOP-62 (LC:HOP-62), TMI sheet, read-out: NCI-60 screening: Raw GI50): 200 nM
- NCI-60 screening: Log(GI50) [11]: -6.62
- NCI-60 screening: Log(RedIndex) [11]: 1.02
- GI50 (cell line HOP-92 (LC:HOP-92), TMI sheet, read-out: NCI-60 screening: Raw GI50): 240 nM
- NCI-60 screening: Log(GI50) [12]: -6.65
- NCI-60 screening: Log(RedIndex) [12]: 0.83
- GI50 (cell line HT29 (CO:HT29), TMI sheet, read-out: NCI-60 screening: Raw GI50): 230 nM
- NCI-60 screening: Log(GI50) [13]: -6.4
- NCI-60 screening: Log(RedIndex) [13]: 0.23
- NCI-60 screening: Log(GI50) [14]: -5.96
- NCI-60 screening: Log(RedIndex) [14]: 0.27
- NCI-60 screening: Log(GI50) [15]: -6.78
- NCI-60 screening: Log(RedIndex) [15]: 0.82
- GI50 (cell line LOX IMVI (ME:LOX IMVI), TMI sheet, read-out: NCI-60 screening: Raw GI50): 170 nM
- NCI-60 screening: Log(GI50) [16]: -6.6
- NCI-60 screening: Log(RedIndex) [16]: 0.78
- GI50 (cell line M14 (ME:M14), TMI sheet, read-out: NCI-60 screening: Raw GI50): 250 nM
- NCI-60 screening: Log(GI50) [17]: -6.67
- NCI-60 screening: Log(RedIndex) [17]: 0.87
- NCI-60 screening: Log(GI50) [18]: -7.55
- NCI-60 screening: Log(RedIndex) [18]: 1.05
- GI50 (cell line MCF7 (BR:MCF7), TMI sheet, read-out: NCI-60 screening: Raw GI50): 28 nM
- NCI-60 screening: Log(GI50) [19]: -6.08
- NCI-60 screening: Log(RedIndex) [19]: 0.33
- NCI-60 screening: Log(GI50) [20]: -7.16
- NCI-60 screening: Log(RedIndex) [20]: 0.93
- NCI-60 screening: Log(GI50) [21]: -7.34
- NCI-60 screening: Log(RedIndex) [21]: 1.02
- NCI-60 screening: Log(GI50) [22]: -5.99
- NCI-60 screening: Log(RedIndex) [22]: 0.15
- NCI-60 screening: Log(GI50) [23]: -6.79
- NCI-60 screening: Log(RedIndex) [23]: 0.96
- GI50 (cell line RPMI-8226 (LE:RPMI-8226), TMI sheet, read-out: NCI-60 screening: Raw GI50): 160 nM
- NCI-60 screening: Log(GI50) (cell line SF-268 (CNS:SF-268), TMI sheet): -6.76
- GI50 (cell line SF-268 (CNS:SF-268), TMI sheet, read-out: NCI-60 screening: Raw GI50): 170 nM
- NCI-60 screening: Log(GI50) (cell line SF-295 (CNS:SF-295), TMI sheet): -6.88
- GI50 (cell line SF-295 (CNS:SF-295), TMI sheet, read-out: NCI-60 screening: Raw GI50): 130 nM
- NCI-60 screening: Log(GI50) [24]: -6.76
- NCI-60 screening: Log(RedIndex) [24]: 0.88
- GI50 (cell line SF-539 (CNS:SF-539), TMI sheet, read-out: NCI-60 screening: Raw GI50): 170 nM
- NCI-60 screening: Log(GI50) [25]: -6.78
- NCI-60 screening: Log(RedIndex) [25]: 0.99
- GI50 (cell line SK-MEL-5 (ME:SK-MEL-5), TMI sheet, read-out: NCI-60 screening: Raw GI50): 170 nM
- NCI-60 screening: Log(GI50) [26]: -6.58
- NCI-60 screening: Log(RedIndex) [26]: 1.14
- GI50 (cell line SK-MEL-28 (ME:SK-MEL-28), TMI sheet, read-out: NCI-60 screening: Raw GI50): 260 nM
- NCI-60 screening: Log(GI50) [27]: -6.65
- NCI-60 screening: Log(RedIndex) [27]: 1
- NCI-60 screening: Log(GI50) [28]: -7.43
- NCI-60 screening: Log(RedIndex) [28]: 0.87
- NCI-60 screening: Log(GI50) [29]: -6.58
- NCI-60 screening: Log(RedIndex) [29]: 0.85
- GI50 (cell line SW-620 (CO:SW-620), TMI sheet, read-out: NCI-60 screening: Raw GI50): 260 nM
- NCI-60 screening: Log(GI50) [30]: -6.54
- NCI-60 screening: Log(RedIndex) [30]: 0.82
- NCI-60 screening: Log(GI50) [31]: -6.86
- NCI-60 screening: Log(RedIndex) [31]: 1.04
- GI50 (cell line U251 (CNS:U251), TMI sheet, read-out: NCI-60 screening: Raw GI50): 140 nM
- NCI-60 screening: Log(GI50) [32]: -6.83
- NCI-60 screening: Log(RedIndex) [32]: 1.02
- GI50 (cell line UACC-62 (ME:UACC-62), TMI sheet, read-out: NCI-60 screening: Raw GI50): 150 nM
- NCI-60 screening: Log(GI50) [33]: -6.3
- NCI-60 screening: Log(RedIndex) [33]: 0.6
- mean reductive index (mean over NCI cell lines, vs P-CC60): ca. 7
- GI50 (read-out: NCI-60 screening: Raw GI50): 240 nM
